In patent publication US20190256827A1, “EPIGENOME EDITING SYSTEMS AND METHODS” (STC.UNM, priority 2017, published 2019):

How the values were obtained:
Format in all cases: cell-based, human
[1] = system: IL1RN mRNA in HEK293T cells; experiment: qPCR of IL1RN mRNA levels (dCas9-PYL-HA, FLAG-ABI-P300, sgRNAs)
Experimental: To study how IL1RN expression levels change, total RNAs from the cell lysates generated in the above experiment were purified and then subjected to qPCR analysis to quantify mRNA levels.
Human embryonic kidney cell HEK293T (American Type Culture Collection, Manassas, Va.) was cultured in Dulbecco's modified Eagle's medium (DMEM) (Gibco) with 10% FBS (Atlanta Biologicals), 1× GlutaMax (Gibco, Thermo Fisher Scientific, Inc., Waltham, Mass.), and 1× penicillin/streptomycin (Pen/Strep; Gibco, Thermo Fisher Scientific, Inc., Waltham, Mass.). Cells (100,000/ml) were plated in 24-well or 10-cm cell culture plate the day before transfection. For each well of 24-well plate transfection, 500 ng of dCas9-PYL-HA, 420 ng of FLAG-ABI-P300, and a total amount of 200-ng mix of gRNAs, with a 50-ng per each gRNA, were mixed with 50×(v/w) Opti-MEM (Gibco, Thermo Fisher Scientific, Inc., Waltham, Mass.), then incubate with the same volume of 3 μg PEI-Opti-MEM solution for 20 minutes at room temperature. Then, 100 μL of PEI-combined plasmids were added to every single well of 24-well plate and cultured for 24 hours before experiments were performed. For a 10 cm plate, 1 mL of PEI-combined plasmids were needed. After six hours transfection, cells were washed and incubated for another 1-72 hours before experiments were performed.
Total RNA was extracted using the EZNA Total RNA Kit I (Omega Bio-tek, Inc., Norcross, Ga.). qPCR reactions were performed on cDNA prepared from 1,000 ng of total cellular RNA using the High-Capacity cDNA Reverse Transcription Kit (Applied Biosystems Co., Thermo Fisher Scientific, Inc., Foster City, Calif.). TaqMan qPCR probes (Thermo Fisher Scientific, Inc., Waltham, Mass. IL1RN, Hs00893626; GRM2, Hs00968358; HBA, Hs00361191; MYOD1 Hs02330075; GAPDH, Hs99999905) and Fast Advanced Master Mix (Life Technologies Co., Co., Thermo Fisher Scientific, Inc., Carlsbad, Calif.) were used in multiplexed reactions and 384-well format in a 7900HT Fast Real-Time PCR System (Applied Biosystems Co., Thermo Fisher Scientific, Inc., Foster City, Calif.). All measurements were performed at least in triplicate. Data were analyzed using the SDS software, version 2.4 (Applied Biosystems Co., Thermo Fisher Scientific, Inc., Foster City, Calif.), by the ΔΔCt method: the Ct values of target gene were normalized to Ct values of GAPDH, the folds of target gene expression changes were normalized to experimental controls. Analyzed data are reported as the mean±s.e.m. for biological replicates. In ChIP assays, the Ct values of antibodies pulled down segments were normalized to the Ct values of 10% input.

[2] = system: six off-target genes (RHOC, IRF2BP2, TFAM, HSD3B7, METTL2A, CEP250) in HEK293T cells; experiment: qPCR of mRNA levels of six off-target genes with IL1RN sgRNAs; settings: 100 μM ABA for 24 hours vs DMSO
Experimental: FIG. 11. Expression of six off-target genes when induced by ABA using sgRNAs designed for IL1RN. dCas9-PYL-HA, FLAG-ABI-P300 and IL1RN sgRNAs were transfected into HEK293T cells for 24 hours. Cells were then treated with 100 μM of ABA for another 24 hours followed by the analysis of mRNA levels of six off-target genes using q-PCR. The fold changes were calculated by comparing ABA treated cells to cells treated with DMSO. Error bars represent ±s.e.m. from biological replicates (n=6).
It is known that sgRNA/Cas9 can bind to unintended loci, which can lead to off-target effects. To examine if aberrant binding interferes with the interpretation of results, all reported sites in the genome that could potentially be targeted by the IL1RN sgRNAs used in the studies were checked. Changes in the mRNA levels of six genes having TSS close to the off-target sites were monitored (Table 3) after cells were co-transfected with IL1RN sgRNAs, dCas9-PYL-HA and FLAG-ABI-P300 plasmids followed by ABA treatment for 24 hours.
Total RNA was extracted using the EZNA Total RNA Kit I (Omega Bio-tek, Inc., Norcross, Ga.). qPCR reactions were performed on cDNA prepared from 1,000 ng of total cellular RNA using the High-Capacity cDNA Reverse Transcription Kit (Applied Biosystems Co., Thermo Fisher Scientific, Inc., Foster City, Calif.). […] Analyzed data are reported as the mean±s.e.m. for biological replicates. […]

[3] = system: GAL4DBD-ABI/VP16AD-PYL, inducible luciferase reporter in HEK293T cells; experiment: Inducible luciferase reporter assay, ABA-responsive system (orthogonality); settings: treated with IAA or ABA or DMSO for 24 hours
Experimental: To ensure that IAA and ABA could be used to independently control two histone modification editing events, the orthogonality between these two systems was tested. HEK293T cells were co-transfected with either GAL4DBD-TIR1*/VP16AD-AID (responsive to IAA) or GAL4DBD-ABI/VP16AD-PYL (responsive to ABA), and an inducible luciferase reporter construct. This was followed by treating cells with either IAA or ABA (or DMSO as a control) for 24 hours. […] To test the reversibility of IAA-induced dimerization, in which it was critical to achieve precise temporal control, HEK293T cells were co-transfected with GAL4DBD-TIR1*, VP16AD-AID, and an inducible luciferase expression construct, and then treated cells with 50 μM IAA for 24 hours. Cells were then washed with fresh media without IAA to remove the inducer (or no washing as a control). They were then harvested for luciferase assays after washing.

CC1=CC(=O)CC(C)(C)[C@@]1(O)/C=C/C(C)=C\C(=O)O [ABA, abscisic acid]
IL1RN mRNA levels after washing ([1]; ABA for 12, 24 or 48 hours, then washed): well correlated with the changes in H3K27Ac levels | IL1RN mRNA level with P300 mutant (D1399Y) lacking acetyltransferase activity ([1]; FLAG-ABI-P300 D1399Y, 100 μM ABA for 24 hours): did not increase | IL1RN mRNA level ([1]; cells transfected with ABI-P300, dCas9-PYL and IL1RN sgRNAs, treated with ABA (100 μM, 24 hours)): IL1RN mRNA level increases | IL1RN mRNA when sgRNAs designed for GRM2, HBA or MYOD1 were used ([1]; sgRNAs for GRM2, HBA or MYOD1 in place of IL1RN, 24-hour ABA treatment): no increase in IL1RN mRNA was observed | time at which the IL1RN mRNA level increases ([1]; time course after ABA addition): four hours after ABA addition | time until which IL1RN mRNA continues to increase rapidly ([1]; time course after ABA addition): about 24 hours | mRNA levels of six off-target genes [2]: None of the six genes display increases in mRNA levels | luciferase expression, ABA-responsive system [3]: Only the proper combination of inducer with corresponding binding proteins could induce luciferase expression
